Experimental data from PMC10966990, “Rational design of a cyclohexanone dehydrogenase for enhanced α,β-desaturation and substrate specificity” (Chemical Science, 2024).

Assays:
[1] = target: T1, cyclohexanone dehydrogenase (CDH) (Alicycliphilus denitrificans, UniProt F4G7N3); test: X-ray crystal structure, […] A; format: binding; conditions: covalent; C8M of FAD 1.84 A from S-gamma of Cys305
T1 construct: gene Alide2_4318; full gene in pET28a, N-terminal His6 tag, E. coli BL21(DE3); dimer

[2] = target: T1, cyclohexanone dehydrogenase (CDH); test: DCPIP colour change assay; format: biochemical; conditions: 0.25 uM enzyme, 2 mM substrate, 75 uM DCPIP, 20 mM Tris-HCl pH 7.8
Target sequence in this assay (F4G7N3 entry or part of it W94A, form open): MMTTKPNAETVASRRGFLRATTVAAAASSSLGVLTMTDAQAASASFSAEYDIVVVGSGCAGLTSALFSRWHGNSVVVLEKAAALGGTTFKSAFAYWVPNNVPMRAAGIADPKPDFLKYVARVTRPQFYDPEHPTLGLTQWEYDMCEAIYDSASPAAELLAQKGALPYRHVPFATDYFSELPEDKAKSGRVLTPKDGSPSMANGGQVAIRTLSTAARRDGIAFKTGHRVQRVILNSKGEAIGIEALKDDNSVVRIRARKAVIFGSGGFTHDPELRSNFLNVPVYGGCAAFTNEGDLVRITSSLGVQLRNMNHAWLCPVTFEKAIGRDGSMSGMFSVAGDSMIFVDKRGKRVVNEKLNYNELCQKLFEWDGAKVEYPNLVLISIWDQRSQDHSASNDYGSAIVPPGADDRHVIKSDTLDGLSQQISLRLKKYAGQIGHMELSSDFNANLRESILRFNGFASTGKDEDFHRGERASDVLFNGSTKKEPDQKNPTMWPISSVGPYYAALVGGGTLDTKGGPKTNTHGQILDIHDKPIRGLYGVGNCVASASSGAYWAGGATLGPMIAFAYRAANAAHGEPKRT

[3] = target: T2, cyclohexanone dehydrogenase (CDH) (Alicycliphilus denitrificans, UniProt F4G7N3, Y176F, form not given); test: X-ray crystal structure, […] A; format: binding; conditions: crystals grown with 10 mM cyclohexanone; product modelled in active site next to FAD, further molecules elsewhere
T2 construct: gene Alide2_4318; full gene in pET28a, N-terminal His6 tag, E. coli BL21(DE3); dimer
T2 sequence (F4G7N3 entry or part of it Y176F, form open): as the sequence (F4G7N3 entry or part of it W94A, form open) above, with A94W, Y176F counted along it

purified protein = substrate: CC1(C)CCC(=O)CC1; test: purified protein; conditions: pH 7.8
[4] = substrate: O=C1CCCCC1; test: DCPIP reduction assay, Michaelis-Menten; format: biochemical, Alicycliphilus denitrificans; conditions: 76 nM enzyme, 60 uM DCPIP, 20 mM Tris-HCl pH 7.8
[5] = substrate: CC1CCCC(=O)C1; test: DCPIP reduction assay, Michaelis-Menten; format: biochemical, Alicycliphilus denitrificans; conditions: 76 nM enzyme, 60 uM DCPIP, 20 mM Tris-HCl pH 7.8, low aqueous solubility of substrate, caution stated

Cc1cc2nc3c(=O)[nH]c(=O)nc-3n(C[C@H](O)[C@H](O)[C@H](O)COP(=O)(O)OP(=O)(O)OC[C@H]3O[C@@H](n4cnc5c(N)ncnc54)[C@H](O)[C@@H]3O)c2cc1C [flavin adenine dinucleotide]
X-ray crystal structure, 1.86 A [1]: The FAD cofactor was found to occupy a deep positively charged channel

CC1CCCC(=O)C1 (stereo not shown) [compound 2, 3-methylcyclohexanone]
DCPIP colour change assay [2]: The W113A variant showed highest activity on 3-methylcyclohexanone

O=C1C=CCCC1 [compound 10, 2-cyclohexen-1-one]
X-ray crystal structure, 1.33 A [3]: 2-cyclohexen-1-one was subsequently modelled to produce the Y195F complex structure

O=C1CCc2ccccc2O1 [compound 5, dihydrocoumarin]
DCPIP colour change assay [2]: the W113A variant, but not WT CDH, with dihydrocoumarin

B1: cyclohexanone dehydrogenase (CDH) (Alicycliphilus denitrificans K601) (protein)
chain: MMTTKPNAETVASRRGFLRATTVAAAASSSLGVLTMTDAQAASASFSAEYDIVVVGSGCAGLTSALFSRWHGNSVVVLEKAAALGGTTFKSAFWYWVPNNVPMRAAGIADPKPDFLKYVARVTRPQFYDPEHPTLGLTQWEYDMCEAIYDSASPAAELLAQKGALPYRHVPFATDYFSELPEDKAKSGRVLTPKDGSPSMANGGQVAIRTLSTAARRDGIAFKTGHRVQRVILNSKGEAIGIEALKDDNSVVRIRARKAVIFGSGGFTHDPELRSNFLNVPVYGGCAAFTNEGDLVRITSSLGVQLRNMNHAWLCPVTFEKAIGRDGSMSGMFSVAGDSMIFVDKRGKRVVNEKLNYNELCQKLFEWDGAKVEYPNLVLISIWDQRSQDHSASNDYGSAIVPPGADDRHVIKSDTLDGLSQQISLRLKKYAGQIGHMELSSDFNANLRESILRFNGFASTGKDEDFHRGERASDVLFNGSTKKEPDQKNPTMWPISSVGPYYAALVGGGTLDTKGGPKTNTHGQILDIHDKPIRGLYGVGNCVASASSGAYWAGGATLGPMIAFAYRAANAAHGEPKRT
notes: full gene in pET28a, N-terminal His6 tag, E. coli BL21(DE3); dimer
Km (purified protein): 25.62 ± 7.68 mM
Km [4]: 0.37 ± 0.04 mM
Km [5]: 9.31 ± 1.99 mM
